The target of data set [1] is T1, ATP-dependent 6-phosphofructokinase, muscle type (Oryctolagus cuniculus) (UniProt P00511).
T1 sequence (whole entry): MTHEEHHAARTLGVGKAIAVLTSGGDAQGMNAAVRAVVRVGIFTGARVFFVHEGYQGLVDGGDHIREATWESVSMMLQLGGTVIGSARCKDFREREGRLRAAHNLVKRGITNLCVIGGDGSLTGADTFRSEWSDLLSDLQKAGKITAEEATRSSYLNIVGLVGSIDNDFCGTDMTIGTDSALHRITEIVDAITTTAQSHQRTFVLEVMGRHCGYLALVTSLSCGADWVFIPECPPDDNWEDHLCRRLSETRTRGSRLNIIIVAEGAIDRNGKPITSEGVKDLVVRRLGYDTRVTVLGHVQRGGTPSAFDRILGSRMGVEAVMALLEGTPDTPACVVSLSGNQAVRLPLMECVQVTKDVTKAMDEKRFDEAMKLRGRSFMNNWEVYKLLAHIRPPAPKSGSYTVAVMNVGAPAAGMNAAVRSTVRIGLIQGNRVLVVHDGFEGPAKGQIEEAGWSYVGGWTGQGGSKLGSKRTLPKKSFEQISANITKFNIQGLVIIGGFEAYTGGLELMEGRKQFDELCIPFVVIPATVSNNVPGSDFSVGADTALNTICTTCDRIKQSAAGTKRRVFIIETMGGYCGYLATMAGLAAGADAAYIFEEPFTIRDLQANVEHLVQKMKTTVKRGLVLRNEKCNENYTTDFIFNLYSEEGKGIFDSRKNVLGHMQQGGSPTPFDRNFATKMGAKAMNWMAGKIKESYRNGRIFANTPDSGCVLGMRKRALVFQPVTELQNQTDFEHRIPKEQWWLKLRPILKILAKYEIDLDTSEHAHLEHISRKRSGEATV
In words: Inhibition of rabbit muscle PFK at 170 uM.

The nature of data set [2]: Inhibition of Trypanosoma brucei GAPDH expressed in Escherichia coli.
Data set [3] has as its target T2, Fructose-bisphosphate aldolase A (Oryctolagus cuniculus, UniProt P00883).
T2 sequence (P00883 whole entry): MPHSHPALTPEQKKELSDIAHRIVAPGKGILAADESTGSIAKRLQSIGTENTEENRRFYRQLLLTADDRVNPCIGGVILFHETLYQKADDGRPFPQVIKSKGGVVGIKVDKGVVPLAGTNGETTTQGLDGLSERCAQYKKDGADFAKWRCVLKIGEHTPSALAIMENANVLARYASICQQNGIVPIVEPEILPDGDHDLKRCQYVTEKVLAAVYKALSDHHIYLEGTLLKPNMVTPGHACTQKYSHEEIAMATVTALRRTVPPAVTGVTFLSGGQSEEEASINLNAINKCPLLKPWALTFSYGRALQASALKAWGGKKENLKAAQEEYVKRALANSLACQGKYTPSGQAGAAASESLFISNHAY
In words: Inhibition of rabbit muscle aldolase.

Data set [4] has as its target T3, ATP-dependent 6-phosphofructokinase (Trypanosoma brucei, UniProt O15648).
T3 sequence (O15648 whole entry): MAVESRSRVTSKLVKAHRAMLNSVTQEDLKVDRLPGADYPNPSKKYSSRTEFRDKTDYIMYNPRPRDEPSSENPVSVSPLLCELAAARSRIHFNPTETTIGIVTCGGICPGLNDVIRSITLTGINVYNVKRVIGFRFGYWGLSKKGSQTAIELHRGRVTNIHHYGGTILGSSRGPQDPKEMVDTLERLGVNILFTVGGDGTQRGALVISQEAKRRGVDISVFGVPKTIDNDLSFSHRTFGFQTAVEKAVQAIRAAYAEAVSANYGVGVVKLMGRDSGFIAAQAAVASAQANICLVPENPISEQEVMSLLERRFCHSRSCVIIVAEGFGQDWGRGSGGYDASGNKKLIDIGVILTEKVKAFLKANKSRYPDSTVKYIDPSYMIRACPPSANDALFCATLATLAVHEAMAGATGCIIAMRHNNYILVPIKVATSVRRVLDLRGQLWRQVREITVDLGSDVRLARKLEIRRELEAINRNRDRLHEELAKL
In words: Competitive reversible inhibition of Trypanosoma brucei PFK expressed in Escherichia coli using fructose-6-phosphate by spectrophotometry analysis.

The test system of data set [5] is Trypanosoma brucei brucei. In words: Antitrypanosomal activity against Trypanosoma brucei brucei 427 bloodstream form after 72 hrs by LILIT method. Type of data set: functional. Particulars: for EC50: Trypanosoma brucei, 427, 72 h, read-out: ED50 (the source's name).
Data set [6] has as its system Trypanosoma brucei. As to the kind of experiment: Inhibition of Trypanosoma brucei aldolase expressed in Escherichia coli at 100 uM.
For data set [7], the target named is Glyceraldehyde-3-phosphate dehydrogenase (Oryctolagus cuniculus) (UniProt P46406). In words: Inhibition of rabbit muscle GAPDH at 3000 uM.
Chain of Glyceraldehyde-3-phosphate dehydrogenase (Oryctolagus cuniculus) (P46406 whole entry, looked up): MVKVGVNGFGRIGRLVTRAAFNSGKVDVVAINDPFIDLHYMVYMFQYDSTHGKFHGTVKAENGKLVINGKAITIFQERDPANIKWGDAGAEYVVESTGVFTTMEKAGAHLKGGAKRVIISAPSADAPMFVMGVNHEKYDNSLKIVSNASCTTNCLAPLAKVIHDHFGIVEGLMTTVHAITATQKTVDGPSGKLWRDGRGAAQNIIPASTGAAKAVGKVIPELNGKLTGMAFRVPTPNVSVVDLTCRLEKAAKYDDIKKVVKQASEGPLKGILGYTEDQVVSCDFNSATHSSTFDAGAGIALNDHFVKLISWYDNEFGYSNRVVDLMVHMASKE
Data set [8] concerns the target T3, ATP-dependent 6-phosphofructokinase. As to the kind of experiment: Inhibition of Trypanosoma brucei PFK expressed in Escherichia coli.
Data set [9] has as its system Trypanosoma brucei. As to the kind of experiment: Inhibition of Trypanosoma brucei aldolase expressed in Escherichia coli at 140 uM.
For the next data set, the system named is MRC5. In words: Cytotoxicity against human MRC5 cells after 72 hrs by Alamar blue staining. It counts as cell-based. Particulars: mrc5, 72 h. In general terms: The colour change of resazurin is a common sign of viable cells or microbes.
For data set [10], the target named is T1, ATP-dependent 6-phosphofructokinase, muscle type (Oryctolagus cuniculus). As to the kind of experiment: Inhibition of rabbit muscle PFK at 690 uM.
The target of data set [11] is T4, ATP-dependent 6-phosphofructokinase (Trypanosoma brucei) (UniProt O15648).
T4 sequence (whole entry): T3 sequence (O15648 whole entry)
As to the kind of experiment: Inhibition of Trypanosoma brucei PFK expressed in Escherichia coli at 690 uM.

Data set [12] relates to Trypanosoma brucei. As to the kind of experiment: Inhibition of Trypanosoma brucei GAPDH expressed in Escherichia coli at 278 uM.
The target in data set [13] is Glyceraldehyde-3-phosphate dehydrogenase (Oryctolagus cuniculus) (UniProt P46406). In words: Inhibition of rabbit muscle GAPDH at 69 uM.
The target in data set [14] is T5, Fructose-bisphosphate aldolase A (Oryctolagus cuniculus) (UniProt P00883).
T5 sequence (whole entry): T2 sequence (P00883 whole entry)
In words: Inhibition of rabbit muscle aldolase at 280 uM.

The nature of data set [15]: Inhibition of Trypanosoma brucei aldolase expressed in Escherichia coli.
The target in data set [16] is T1, ATP-dependent 6-phosphofructokinase, muscle type (Oryctolagus cuniculus). In words: Inhibition of rabbit muscle PFK at 94 uM.
Data set [17] concerns the target Glyceraldehyde-3-phosphate dehydrogenase (Oryctolagus cuniculus, UniProt P46406). As to the kind of experiment: Inhibition of rabbit muscle GAPDH.
Data set [18] is described as follows: Mixed-type reversible inhibition of Trypanosoma brucei GAPDH expressed in Escherichia coli using NAD+ by spectrophotometry analysis.
Data set [19] is described as follows: Mixed-type reversible inhibition of Trypanosoma brucei GAPDH expressed in Escherichia coli at enzyme substrate complex by spectrophotometry analysis.
The nature of data set [20]: Selectivity ratio of IC50 for rabbit muscle aldolase to IC50 for Trypanosoma brucei aldolase. It counts as tissue-based. Particulars: Muscle tissue.
In data set [21] the target is T1, ATP-dependent 6-phosphofructokinase, muscle type (Oryctolagus cuniculus). In words: Inhibition of rabbit muscle PFK at 500 uM.
Data set [22] concerns the target T4, ATP-dependent 6-phosphofructokinase (Trypanosoma brucei). As to the kind of experiment: Ratio of Ki/Km for Trypanosoma brucei PFK expressed in Escherichia coli using fructose-6-phosphate by spectrophotometry analysis.

The structures appear in SMILES notation. The source made the active and inactive calls. The rule behind the calls is not given here.

Chain of Glyceraldehyde-3-phosphate dehydrogenase (P46406 whole entry): as the sequence (P46406 whole entry, looked up) above

In the case of `CC1(C)C(=O)CC[C@]2(C)C3Cc4cc5ccccc5n4[C@]3(C)CC[C@@H]12` (stereo partly specified), the inhibition (as a rule, the change of the read-out against control, counted positive when it falls) was 18% in [1] and 8% in the data set on Trypanosoma brucei [6]. The values for the concentration for half-maximal inhibition (IC50) in data set [2], in [3] and in data set [8] were 1050 µM, 87 µM and 20 µM, respectively. Further, the Ki (in general, a dissociation constant, usually derived from enzyme kinetics or from competition with a known ligand) in data set [4] turned out to be 10 µM. For the same molecule, the EC50 in [5] was 18 µM. Moreover, the inhibition entry in data set [7] is “inactive”.
As for `CC(=O)N1c2ccccc2[C@H]2[C@@H]1C[C@@H]1[C@@]2(C)CC[C@H]2C(C)(C)[C@H](O)CC[C@]12C`, the inhibition with Trypanosoma brucei [9] is 11%; in [10], 12%; in [11], 28%; with Trypanosoma brucei [12], 10%; in data set [13], 10%. Further, the Activity entry in the data set with MRC5 is recorded as “Toxic”. Moreover, the EC50 in [5] stood at 32 µM. Moreover, in [14], the inhibition result is “inactive”.
As to `Nc1nc(N)nc(Nc2ccc([As]3SCC(CO)S3)cc2)n1` (stereo unspecified) [MELARSOPROL], in [5], the EC50 was 0.00395 µM.
For the molecule `CC(=O)O[C@H]1CC[C@]2(C)[C@H]3Cc4cc5ccccc5n4[C@]3(C)CC[C@H]2C1(C)C`, the half-maximal inhibitory concentration (IC50) – broadly, the concentration at which inhibition is half-maximal – is 0.5 µM in data set [15]; 110 µM in [2]; 150 µM in data set [3]; 2050 µM in [17]; 170 µM in data set [8]. In addition, the Activity result in the data set with MRC5 is given as “Toxic”. For the same molecule, the ED50 result in data set [5] is “inactive”. The inhibition in [16] came to 16%.
As to `CC1(C)[C@H](O)CC[C@]2(C)[C@@H]3C[C@@H]4Nc5ccccc5[C@@H]4[C@]3(C)CC[C@@H]12` [POLYVEOLINE], the IC50 came to 80 µM in [15]; 110 µM in data set [2]; 270 µM in [3]; 620 µM in data set [17]; 30 µM in data set [8]. For the same molecule, the Ki is 18 µM in data set [18] and 50 µM in [19]. The Activity entry in the data set on MRC5 is “Toxic”. The EC50 in data set [5] came out at 54 µM. Besides, the Ratio IC50 in data set [20] is 3. Also, the inhibition entry in data set [21] was “inactive”.
Turning to `CC1(C)C(=O)CC[C@@]2(C)[C@H]1CC[C@]1(C)[C@H]2Cc2cc3ccccc3n21` [POLYSIN], the Activity result in the data set with MRC5 is “Toxic”. The same molecule came in with an inhibitory constant (Ki) in data set [4] of 9 µM. For the same molecule, in data set [22], the Ki/Km is 0.05.
For the molecule `CC1(C)C(=O)CC[C@]2(C)[C@H]3Cc4cc5ccccc5n4[C@]3(C)CC[C@@H]12`, the Activity result in the data set with MRC5 is “Toxic”. Besides, the Ki/Km in [22] is 0.05.

These data come from ChEMBL document CHEMBL1158635, “Antitrypanosomal alkaloids from Polyalthia suaveolens (Annonaceae): their effects on three selected glycolytic enzymes of Trypanosoma brucei” (Bioorg Med Chem Lett, 2010).
